Experimental data from patent US3959272A, “Aminoalkyl esters of 2-anilino-nicotinic acids” (Societe Anonyme dite: Hexachime, priority 1972, dated 1976).

Key:
[1] = Anti-inflammatory activity: oedema provoked by carragenin in the rat; format: in vivo; settings: po, read-out: percentage inhibition of oedema
Procedure: The method used was as follows.
The anti-inflammatory activity was measured on oedema provoked by carragenin in the rat. Groups of six male rats each weighing 120 to 130 g received the compound under test orally in suspension in "tween 80", half the dose being given 2 hours before and the other half 1/2 hour before the subcutaneous plantar injection of 0.05 ml of a 1 % carragenin solution. The volume of the injected paw was measured by plethysmography at regular intervals. Table 1 below gives the percentage inhibition of the oedema with reference to untreated controls.

[2] = Analgesic activity: Siegmund's test (phenylbenzoquinone painful reactions); format: in vivo; settings: Mus musculus, po, read-out: percentage inhibition of reactions
Procedure: This activity was measured by Siegmund's test in mice and Randall and Selitto's test in the rat.
Groups of six mice received the compound under test orally 1 hour before intraperitoneal injection of 0.2 ml of an 0.02% of solution of phenylbenzoquinone. The number of painful reactiors from the fifth to the tenth minute after the injection of phenylbenzoquinone was counted.

[3] = Potentiation of stereotypes by amphetamine; format: in vivo, rat; settings: 5 mg/kg dexamphetamine sulphate
Procedure: The compound under test was administered to groups of 5 rats intraperitoneally. Thirty minutes afterwards, 5 mg/kg of dexamphetamine sulphate was injected intraperitoneally. The duration of the phenomenon is counted at regular intervals from 0 to 4 and the counts are added up.

[4] = Cardiovascular parameters: atropinised and bivagotomised dogs; format: in vivo, dog
Procedure: (§1) Unsorted dogs of either sex weighing 8 to 17 kg and anaesthetised by chloralose in solution in polyethylene glycol 300 (0.12 g/kg) were respirated artificially using a Bird pump (Mark 7). The carotid arterial blood pressure was measured with the aid of a Statham P 23 dB device. The left ventricular pressure is measured with the same device connected by a supple catheter introduced by the femoral artery and pushed into the left ventricle. The cardiac rhythm is measured from the signals of the carotid pressure. The myocardial contractile force is measured using a strain gauge (Apelab) attached to the right ventricle. All the parameters are recorded on a Beckman polygraph. Two series of dogs are used to test the cardiovascular activity: 5 dogs atropinised (1 mg/kg intravenously) and bivagotomised; and a second series of 4 intact dogs. The product of Example 1 was injected through the saphena vein and the duration of the injection was 2 minutes.
The following Table VIII gives the variations of the recorded parameters and their significance according to the t test (* p< 0.05; ** p<0.01).

[5] = Cardiovascular parameters: intact dogs; format: in vivo, dog; settings: for Average pressure / Diastolic pressure / Systolic pressure: in % (unit assumed)
Procedure: as §1
The following Table IX gives the variations of the parameters recorded and their significance according to the t test (* p<0.05; ** p<0.01; *** p<0.001).

[6] = Action on isoprenaline in dogs; format: in vivo, dog; settings: only if atropinised and bivagotomised
[7] = Acute toxicity in the rat; settings: in vivo
[8] = Post-operative pain following bone surgery, patients; format: in vivo, human (patients)
Procedure: The product of Example 1 has been administered to patients suffering from post-operative pain following bone surgery. 10 Patients received the compound at a daily dosage of 150 mg orally. Complete or partial analgesia was felt by 5 patients and slight analgesia by a further 4. When administered intramuscularly at a dosage of 20 to 100 mg per day to 9 patients, the product of Example 1 produced complete analgesia in 5, partial analgesia in 2 and slight analgesia in the remaining 2. […] Eight patients received the product of Example 1 rectally in a dosage of 300 mg per day.

Solubility in water = format: physicochemical
[9] = 5 mg/kg intravenously, 5 dogs, * p<0.05
[10] = 8 mg/kg intravenously, 5 dogs, ** p<0.01
[11] = 16 mg/kg intravenously, 4 dogs, ** p<0.01
[12] = 150 mg daily orally, 10 patients
[13] = 300 mg per day rectally, eight patients
[14] = 20 to 100 mg per day intramuscularly, 9 patients
[15] = 50 to 100 mg per day intravenously, slow injection, 13 patients

## Cc1cccc(Nc2ncccc2C(=O)OCCN2CCOCC2)c1C [Example 1, β-Morpholino ethyl nixylate]
[1]; 16 mg/kg orally
  inhibition in vivo at 16 mg/kg: 16%
[1]; 32 mg/kg orally
  inhibition in vivo at 32 mg/kg: 20%
[1]; 64 mg/kg orally
  inhibition in vivo at 64 mg/kg: 34%
[1]; 128 mg/kg orally
  inhibition in vivo at 128 mg/kg: 45%
[1]; 256 mg/kg orally
  inhibition in vivo at 256 mg/kg: 61%
[2]; 4 mg/kg orally
  inhibition in vivo at 4 mg/kg: 10%
[2]; 8 mg/kg orally
  inhibition in vivo at 8 mg/kg: 26%
[2]; 16 mg/kg orally
  inhibition in vivo at 16 mg/kg: 26%
[2]; 32 mg/kg orally
  inhibition in vivo at 32 mg/kg: 45%
[2]; 64 mg/kg orally
  inhibition in vivo at 64 mg/kg: 64%
[2]; 128 mg/kg orally
  inhibition in vivo at 128 mg/kg: 83%
[2]; 256 mg/kg orally
  inhibition in vivo at 256 mg/kg: 95%
[3]; 8 mg/kg intraperitoneally
  Sum of the counts (stereotypes): 14
[3]; 16 mg/kg intraperitoneally
  Sum of the counts (stereotypes): 18
[3]; 32 mg/kg intraperitoneally
  Sum of the counts (stereotypes): 21
[3]; 64 mg/kg intraperitoneally
  Sum of the counts (stereotypes): 33
[3]; 128 mg/kg intraperitoneally
  Sum of the counts (stereotypes): 43
[4]; 1 mg/kg intravenously, 5 dogs
  Average blood pressure: -4±2%
  Diastolic blood pressure: -4±2%
  Systolic blood pressure: -3,3±3%
[4]; 2 mg/kg intravenously, 2 dogs
  Average blood pressure: -12%
  Diastolic blood pressure: -12%
  Duration of reduced blood pressure: 30
  Systolic blood pressure: -12%
[4]; 5 mg/kg intravenously, 5 dogs
  Change in cardiac rhythm: -8 to -20 beats per minute
[4]; [9]
  Diastolic blood pressure: -15±4%
  Systolic blood pressure: -13±3%
[4]; 5 mg/kg intravenously, 5 dogs, ** p<0.01
  Average blood pressure: -14±3%
[4]; 8 mg/kg intravenously, 5 dogs
  Change in cardiac rhythm: -8 to -20 beats per minute
[4]; [10]
  Average blood pressure: -26±5%
  Diastolic blood pressure: -27±5%
  Systolic blood pressure: -24±5%
[4]; 16 mg/kg intravenously, 2 dogs
  Average blood pressure: -31%
  Change in cardiac rhythm: -18 to -24 beats per minute
  Diastolic blood pressure: -32%
  Duration of reduced blood pressure: > 30
  Systolic blood pressure: -30%
[4]; doses of 4 mg/kg and above, during the injection or one to two minutes afterwards
  blood pressure: reduction in blood pressure
[4]; during the injection or one to two minutes afterwards, 2 dogs only
  contractile force: slight increase in the contractile force
[4]; during the injection or one to two minutes afterwards, according to the dose
  increase in the cardiac rhythm: 2-16 beats per minute
[4]; measured in two dogs only
  left ventricular blood pressure: followed the variations of the arterial blood pressure
[4]; two minutes after the injection
  hypotension: hypotension proportional to the dose injected
[5]; 1 mg/kg intravenously, 4 dogs
  Alteration in cardiac rhythm: -1 beats per minute
  Duration of the hypotension: 30
  Average pressure: -9±5.2
  Diastolic pressure: -10±5.7
  Systolic pressure: -8±4.6
[5]; 4 mg/kg intravenously, 4 dogs
  Alteration in cardiac rhythm: -15 beats per minute
  Duration of the hypotension: 60
  Average pressure: -16±5.4
  Systolic pressure: -15±5.3
[5]; 4 mg/kg intravenously, 4 dogs, * p<0.05
  Diastolic pressure: -18±5.5
[5]; 8 mg/kg intravenously, 2 dogs
  Alteration in cardiac rhythm: -22 beats per minute
  Average pressure: -38
  Diastolic pressure: -41
  Systolic pressure: -34
[5]; 16 mg/kg intravenously, 4 dogs
  Alteration in cardiac rhythm: -37 beats per minute
  Duration of the hypotension: > 50
[5]; [11]
  Average pressure: -54±4.3
  Systolic pressure: -45±7
[5]; 16 mg/kg intravenously, 4 dogs, *** p<0.001
  Diastolic pressure: -57±3.8
[5]; different dosages
  biphasic action on the recorded parameters: No biphasic action on the recorded parameters was observed
[6]
  potentiation of the action of isoprenaline: potentiates the action of isoprenaline in 3 dogs out of 5
[7]; ip
  LD50 at 168 h: 875 mg/kg
[7]; po
  LD50 at 168 h: > 2350 mg/kg
[8]; [12]
  complete or partial analgesia: 5 patients
  slight analgesia: 4 patients
[8]; [13]
  moderate analgesia: one
  no analgesia: the last one no analgesia
  strong analgesia: Six
[8]; [14]
  complete analgesia: 5 patients
  partial analgesia: 2 patients
  slight analgesia: 2 patients
[8]; [15]
  complete analgesia: 9 patients
  moderate analgesia: 3 patients
  no analgesia: no analgesia in the remaining patient
Solubility in water; dihydrochloride
  solubility in water: very soluble
Solubility in water; monohydrochloride
  solubility in water: sparingly soluable in water
